Assay results taken from the CheMixHub viscosity set.

Assay: xn = mol fraction of the nth substance listed

CC(O)C(=O)O (stereo not drawn) + CC(C)[C@@H]1CC[C@@H](C)C[C@H]1O
100 kPa, x2 = 0.67
Conditions | viscosity [mPa·s]
293.15 K | 370.9
298.15 K | 218.9
303.15 K | 134.3
308.15 K | 86.53
313.15 K | 58.84
318.15 K | 40.71
323.15 K | 29.47

CCc1ccccc1 + CCC(C)=O
298.15 K, 101.33 kPa
Conditions | viscosity [mPa·s]
x1 = 0.0811 | 0.397
x1 = 0.1608 | 0.416
x1 = 0.2397 | 0.433
x1 = 0.347 | 0.459
x1 = 0.4606 | 0.487
x1 = 0.5818 | 0.516
x1 = 0.7041 | 0.548
x1 = 0.8394 | 0.587

Clc1ccccc1 + CCC(C)=O
303.15 K, 101 kPa
Conditions | viscosity [mPa·s]
x2 = 0.0982 | 0.686
x2 = 0.247 | 0.636
x2 = 0.3771 | 0.593
x2 = 0.5481 | 0.541
x2 = 0.6776 | 0.499
x2 = 0.8508 | 0.482

COC(C)(C)C + CCC(C)O
298.15 K, 101 kPa
Conditions | viscosity [mPa·s]
x1 = 0.0999 | 2.16
x1 = 0.1992 | 1.57
x1 = 0.2992 | 1.16
x1 = 0.3976 | 0.91
x1 = 0.503 | 0.725
x1 = 0.6017 | 0.609
x1 = 0.6989 | 0.518
x1 = 0.7986 | 0.443
x1 = 0.8979 | 0.384

COCCOCCOCCOCCOC + CCC(C)O
viscosity [mPa·s]
Conditions | 298.15 K | 308.15 K | 318.15 K | 323.15 K
101 kPa, x1 = 0.0018 | 3.082 | 2.157 | 1.554 | –
101 kPa, x1 = 0.0046 | 3.032 | 2.132 | 1.544 | –
101 kPa, x1 = 0.0146 | 2.91 | 2.069 | 1.515 | –
101 kPa, x1 = 0.0257 | 2.787 | 2.024 | 1.493 | –
101 kPa, x1 = 0.0738 | 2.439 | 1.834 | 1.408 | –
101 kPa, x1 = 0.0988 | – | 1.777 | 1.368 | –
101.3 kPa, x2 = 0.5011 | – | – | – | 1.495
101.3 kPa, x2 = 0.6997 | – | – | 1.445 | –

COCCOCCOCCOCCOC + CCCC(C)O
viscosity [mPa·s], 101 kPa
Conditions | x1 = 0.0055 | x1 = 0.0094 | x1 = 0.0147 | x1 = 0.0256 | x1 = 0.0397 | x1 = 0.0606 | x1 = 0.0791 | x1 = 0.0929 | x1 = 0.1008
298.15 K | 3.301 | 3.26 | 3.223 | 3.071 | 2.91 | 2.75 | 2.641 | 2.58 | 2.55
308.15 K | 2.291 | 2.274 | 2.25 | 2.203 | 2.117 | 2.046 | 1.977 | 1.94 | 1.91
318.15 K | 1.658 | 1.638 | 1.631 | 1.622 | 1.575 | 1.533 | 1.524 | 1.497 | 1.48

C=CC(=O)OCC + CCCCC(C)O
viscosity [mPa·s], 101 kPa
Conditions | 298.15 K | 308.15 K
x1 = 0.05505 | 3.659 | 2.636
x1 = 0.09982 | 3.336 | 2.426
x1 = 0.1555 | 2.973 | 2.188
x1 = 0.1998 | 2.712 | 2.015
x1 = 0.2555 | 2.417 | 1.817
x1 = 0.2999 | 2.205 | 1.673
x1 = 0.3554 | 1.965 | 1.509
x1 = 0.3999 | 1.793 | 1.389
x1 = 0.4555 | 1.598 | 1.253
x1 = 0.4999 | 1.458 | 1.154
x1 = 0.5556 | 1.299 | 1.04
x1 = 0.5999 | 1.185 | 0.958
x1 = 0.6554 | 1.056 | 0.864
x1 = 0.6995 | 0.964 | 0.797
x1 = 0.7554 | 0.859 | 0.718
x1 = 0.7999 | 0.783 | 0.661
x1 = 0.8555 | 0.698 | 0.596
x1 = 0.8999 | 0.637 | 0.549
x1 = 0.9555 | 0.568 | 0.495

CCc1ccccc1 + CCCCCC
viscosity [mPa·s], 101 kPa
Conditions | x2 = 0.14 | x2 = 0.247 | x2 = 0.337 | x2 = 0.486 | x2 = 0.641 | x2 = 0.731
298.15 K | 0.56 | 0.51 | 0.47 | 0.416 | – | 0.339
308.15 K | 0.499 | 0.454 | 0.421 | 0.371 | 0.326 | 0.302
323.15 K | 0.426 | 0.39 | 0.363 | 0.321 | 0.283 | 0.263

COC(C)(C)C + CCCCCC
303.15 K, 101 kPa
Conditions | viscosity [mPa·s]
x1 = 0.1579 | 0.314
x1 = 0.2829 | 0.318
x1 = 0.3671 | 0.321
x1 = 0.4436 | 0.323
x1 = 0.5404 | 0.327
x1 = 0.604 | 0.33
x1 = 0.7122 | 0.335
x1 = 0.8674 | 0.342

Clc1ccccc1 + CCCCCC
viscosity [mPa·s], 101.33 kPa
Conditions | x2 = 0.0793 | x2 = 0.1624 | x2 = 0.2494 | x2 = 0.3407 | x2 = 0.4367 | x2 = 0.5377 | x2 = 0.644 | x2 = 0.7562 | x2 = 0.8747
303.15 K | 0.6623 | 0.6095 | 0.5578 | 0.5101 | 0.4658 | 0.4254 | 0.3927 | 0.3549 | 0.3227
313.15 K | 0.6011 | 0.5513 | 0.5124 | 0.4699 | 0.4288 | 0.3946 | 0.3647 | 0.3305 | 0.3021
323.15 K | 0.5314 | 0.4893 | 0.4543 | 0.4164 | 0.3835 | 0.3551 | 0.3268 | 0.2997 | 0.2745

CCCCCCCCCCCCCCCCCCCCCC + CCCCCCC
viscosity [mPa·s], 101.3 kPa
Conditions | x1 = 0.2 | x1 = 0.4 | x1 = 0.479 | x1 = 0.596 | x1 = 0.798
303.2 K | 0.9761 | – | – | – | –
313.2 K | 0.8502 | 1.621 | 2.137 | – | –
323.1 K | 0.7493 | 1.39 | 1.826 | 2.449 | 3.197

COC(C)(C)C + CCCCCCC
303.15 K, 101 kPa
Conditions | viscosity [mPa·s]
x1 = 0.1976 | 0.373
x1 = 0.2745 | 0.369
x1 = 0.3423 | 0.364
x1 = 0.4536 | 0.359
x1 = 0.5656 | 0.356
x1 = 0.6441 | 0.353
x1 = 0.7685 | 0.35
x1 = 0.8606 | 0.349

COC(C)(C)C + CCCCCCCC
viscosity [mPa·s], 101 kPa
Conditions | 293.15 K | 298.15 K | 303.15 K | 308.15 K
x1 = 0.0937 | 0.5238 | 0.5009 | 0.4686 | 0.4492
x1 = 0.1345 | – | – | 0.444 | –
x1 = 0.1875 | 0.5065 | 0.4844 | 0.454 | 0.4355
x1 = 0.2831 | – | – | 0.423 | –
x1 = 0.2942 | 0.4873 | 0.4666 | 0.4382 | 0.4201
x1 = 0.3682 | – | – | 0.417 | –
x1 = 0.412 | 0.4668 | 0.447 | 0.4207 | 0.4035
x1 = 0.4989 | – | – | 0.406 | –
x1 = 0.511 | 0.4502 | 0.4313 | 0.4067 | 0.3903
x1 = 0.5482 | – | – | 0.401 | –
x1 = 0.5952 | 0.4367 | 0.4189 | 0.3957 | 0.3793
x1 = 0.699 | 0.4201 | 0.4027 | 0.3811 | 0.3653
x1 = 0.791 | – | – | 0.388 | –
x1 = 0.7965 | 0.4039 | 0.3871 | – | 0.3518
x1 = 0.8407 | – | – | 0.381 | –
x1 = 0.9009 | 0.3867 | 0.3707 | 0.3523 | 0.3376

CCCCCCCCCCCCCCCCCCCCCC + CCCCCCCCCC
viscosity [mPa·s], 101.3 kPa
Conditions | x2 = 0.4 | x2 = 0.5 | x2 = 0.6 | x2 = 0.799
303.2 K | – | – | – | 1.47
313.2 K | 2.93 | 2.53 | 2.05 | 1.24

Clc1ccccc1 + CCCCCCCCCC
viscosity [mPa·s], 101 kPa
Conditions | x1 = 0.1146 | x1 = 0.1985 | x1 = 0.31 | x1 = 0.3792 | x1 = 0.4894 | x1 = 0.6146 | x1 = 0.6949 | x1 = 0.8073 | x1 = 0.9173
308.15 K | 0.7161 | 0.703 | 0.6849 | 0.6723 | 0.6588 | 0.6526 | 0.6521 | 0.6598 | 0.6691
313.15 K | 0.6733 | 0.6572 | 0.6458 | 0.6387 | 0.6287 | 0.624 | 0.6222 | 0.6228 | 0.6302

CCCC(C)C + CCCCCCCCCCCC
298 K, 101.33 kPa
Conditions | viscosity [mPa·s]
x1 = 0.1004 | 1.205
x1 = 0.2007 | 1.075
x1 = 0.3018 | 0.939
x1 = 0.4027 | 0.8181
x1 = 0.5008 | 0.7124
x1 = 0.6002 | 0.6097
x1 = 0.6996 | 0.5148
x1 = 0.8002 | 0.4229
x1 = 0.9003 | 0.3443

CCCC(C)C + CCCCCCCCCCCCCC
298 K, 101.33 kPa
Conditions | viscosity [mPa·s]
x1 = 0.1041 | 1.795
x1 = 0.2003 | 1.595
x1 = 0.3021 | 1.362
x1 = 0.4053 | 1.136
x1 = 0.5024 | 0.9502
x1 = 0.6012 | 0.7806
x1 = 0.7022 | 0.6276
x1 = 0.8003 | 0.4899
x1 = 0.8985 | 0.3762

CCCC(C)C + CCCCCCCCCCCCCCCC
298 K, 101.33 kPa
Conditions | viscosity [mPa·s]
x1 = 0.1177 | 2.572
x1 = 0.2071 | 2.199
x1 = 0.3082 | 1.835
x1 = 0.4013 | 1.53
x1 = 0.4982 | 1.241
x1 = 0.6029 | 0.9821
x1 = 0.7034 | 0.7606
x1 = 0.8025 | 0.5679
x1 = 0.9006 | 0.3949

CCc1ccccc1 + CCCCCCCCCCO
viscosity [mPa·s], 101 kPa
Conditions | 298.15 K | 308.15 K
x1 = 0.0666 | 9.53 | 6.54
x1 = 0.1392 | 7.494 | 5.177
x1 = 0.1932 | 6.24 | 4.343
x1 = 0.2642 | 4.904 | 3.44
x1 = 0.3355 | 3.841 | 2.703
x1 = 0.3936 | 3.152 | 2.225
x1 = 0.4483 | 2.623 | 1.883
x1 = 0.5238 | 2.056 | 1.499
x1 = 0.598 | 1.632 | 1.206
x1 = 0.6621 | 1.35 | 1.023
x1 = 0.7309 | 1.118 | 0.863
x1 = 0.7953 | 0.951 | 0.744
x1 = 0.8668 | 0.802 | 0.659
x1 = 0.9396 | 0.693 | 0.597
